The text below walks through data of ChEMBL document CHEMBL1152842, “Synthesis, Raman, FT-IR, NMR spectroscopic data and antimicrobial activity of mixed aza-oxo-thia macrocyclic compounds” (2009).

A word on the MIC: it is the smallest concentration in the dilution series that meets the test's criterion for growth inhibition. Read a low MIC as greater potency.

In brackets after ≈: the same amount, converted by molar mass.

Common to all, as to assay type: functional
For experiment [1], the system named is Pseudomonas aeruginosa. In words: Antibacterial activity against Pseudomonas aeruginosa ATCC 27853 at 10 units after 24 hrs by disk diffusion method. Background: A growth-free zone around the sample is the usual read-out of agar diffusion tests.
Experiment [2] concerns Bacillus cereus. Kind of experiment: Antibacterial activity against Bacillus cereus ATCC 7064 at 10 units after 24 hrs by disk diffusion method.
Experiment [3] has as its system Klebsiella pneumoniae. In words: Antibacterial activity against Klebsiella pneumoniae UC57 at 10 units after 24 hrs by disk diffusion method.
Experiment [4] concerns Mycolicibacterium smegmatis. In words: Antibacterial activity against Mycobacterium smegmatis CCM 2067 at 10 units after 24 hrs by disk diffusion method.
Experiment [5] relates to Escherichia coli. In words: Antibacterial activity against Escherichia coli ATCC 11230 at 10 units after 24 hrs by disk diffusion method.
Experiment [6] relates to Listeria monocytogenes. In words: Antibacterial activity against Listeria monocytogenes ATCC 15313 at 10 units after 24 hrs by disk diffusion method.
Experiment [7] relates to Proteus vulgaris. In words: Antibacterial activity against Proteus vulgaris ATCC 8427 at 10 units after 24 hrs by disk diffusion method.
The test system of experiment [8] is Micrococcus luteus. Kind of experiment: Antibacterial activity against Micrococcus luteus La 2971 at 10 units after 24 hrs by disk diffusion method.
The subject of experiment [9] is Staphylococcus aureus. Kind of experiment: Antibacterial activity against Staphylococcus aureus ATCC 6538 at 10 units after 24 hrs by disk diffusion method.
The subject of experiment [10] is Klebsiella pneumoniae. In words: Antibacterial activity against Klebsiella pneumoniae UC57 after 24 hrs by disk diffusion method.
For experiment [11], the system named is Hanseniaspora guilliermondii. In words: Antifungal activity against Hanseniaspora guilliermondii DSM 3432 after 48 hrs by twofold serial dilution method.
Experiment [12] relates to Pseudomonas aeruginosa. In words: Antibacterial activity against Pseudomonas aeruginosa ATCC 27853 after 24 hrs by disk diffusion method.
The subject of experiment [13] is Rhodotorula mucilaginosa. Kind of experiment: Antifungal activity against Rhodotorula rubra DSM 70403 after 72 hrs by disk diffusion method.
In experiment [14] the test system is Candida albicans. Kind of experiment: Antifungal activity against Candida albicans ATCC 10231 after 72 hrs by disk diffusion method.
Experiment [15] relates to Micrococcus luteus. In words: Antibacterial activity against Micrococcus luteus La 2971 after 24 hrs by twofold serial dilution method.
The test system of experiment [16] is Pseudomonas aeruginosa. In words: Antibacterial activity against Pseudomonas aeruginosa ATCC 27853 after 24 hrs by twofold serial dilution method. To be noted: ATCC 27853, 24 h.
For experiment [17], the system named is Debaryomyces hansenii. Kind of experiment: Antifungal activity against Debaryomyces hansenii DSM 70238 after 72 hrs by disk diffusion method.
Experiment [18] concerns Listeria monocytogenes. In words: Antibacterial activity against Listeria monocytogenes ATCC 15313 after 24 hrs by twofold serial dilution method. Conditions: ATCC 15313, 24 h.
The test system of experiment [19] is Staphylococcus aureus. In words: Antibacterial activity against Staphylococcus aureus ATCC 6538 after 24 hrs by twofold serial dilution method. Conditions: ATCC 6538, 24 h.
Experiment [20] deals with Proteus vulgaris. In words: Antibacterial activity against Proteus vulgaris ATCC 8427 after 24 hrs by twofold serial dilution method. Conditions: ATCC 8427, 24 h.
The test system of experiment [21] is Debaryomyces hansenii. Kind of experiment: Antifungal activity against Debaryomyces hansenii DSM 70238 after 48 hrs by twofold serial dilution method.
For experiment [22], the system named is Rhodotorula mucilaginosa. Kind of experiment: Antifungal activity against Rhodotorula rubra DSM 70403 after 48 hrs by twofold serial dilution method.
The subject of experiment [23] is Mycolicibacterium smegmatis. Kind of experiment: Antibacterial activity against Mycobacterium smegmatis CCM 2067 after 24 hrs by twofold serial dilution method. Conditions: CCM 2067, 24 h.
Experiment [24] concerns Bacillus cereus. Kind of experiment: Antibacterial activity against Bacillus cereus ATCC 7064 after 24 hrs by twofold serial dilution method. To be noted: ATCC 7064, 24 h.
The test system of experiment [25] is Klebsiella pneumoniae. In words: Antibacterial activity against Klebsiella pneumoniae UC57 after 24 hrs by twofold serial dilution method.
Experiment [26] deals with Escherichia coli. In words: Antibacterial activity against Escherichia coli ATCC 11230 after 24 hrs by twofold serial dilution method. To be noted: ATCC 11230, 24 h.
The subject of experiment [27] is Escherichia coli. Kind of experiment: Antibacterial activity against Escherichia coli ATCC 11230 after 24 hrs by disk diffusion method.
The test system of experiment [28] is Kluyveromyces marxianus. In words: Antifungal activity against Kluyveromyces fragilis NRRL 2415 after 72 hrs by disk diffusion method.
Experiment [29] has as its system Staphylococcus aureus. In words: Antibacterial activity against Staphylococcus aureus ATCC 6538 after 24 hrs by disk diffusion method.
For experiment [30], the system named is Kluyveromyces marxianus. Kind of experiment: Antifungal activity against Kluyveromyces fragilis NRRL 2415 after 48 hrs by twofold serial dilution method.
For experiment [31], the system named is Listeria monocytogenes. Kind of experiment: Antibacterial activity against Listeria monocytogenes ATCC 15313 after 24 hrs by disk diffusion method.
The test system of experiment [32] is Hanseniaspora guilliermondii. In words: Antifungal activity against Hanseniaspora guilliermondii DSM 3432 after 72 hrs by disk diffusion method.
The test system of experiment [33] is Candida albicans. In words: Antifungal activity against Candida albicans ATCC 10231 after 48 hrs by twofold serial dilution method.
Experiment [34] deals with Micrococcus luteus. In words: Antibacterial activity against Micrococcus luteus La 2971 after 24 hrs by disk diffusion method.
The subject of experiment [35] is Bacillus cereus. In words: Antibacterial activity against Bacillus cereus ATCC 7064 after 24 hrs by disk diffusion method.
For experiment [36], the system named is Proteus vulgaris. Kind of experiment: Antibacterial activity against Proteus vulgaris ATCC 8427 after 24 hrs by disk diffusion method.
The test system of experiment [37] is Mycolicibacterium smegmatis. In words: Antibacterial activity against Mycobacterium smegmatis CCM 2067 after 24 hrs by disk diffusion method.
In experiment [38] the test system is Staphylococcus aureus. In words: Antibacterial activity against Staphylococcus aureus ATCC 6538 at 1 ug after 24 hrs by disk diffusion method. Conditions: ATCC 6538, 24 h, read-out: IZ.
The test system of experiment [39] is Escherichia coli. Kind of experiment: Antibacterial activity against Escherichia coli ATCC 11230 at 1 ug after 24 hrs by disk diffusion method. To be noted: ATCC 11230, 24 h, read-out: IZ.
For experiment [40], the system named is Bacillus cereus. Kind of experiment: Antibacterial activity against Bacillus cereus ATCC 7064 at 1 ug after 24 hrs by disk diffusion method. To be noted: ATCC 7064, 24 h, read-out: IZ.
Experiment [41] concerns Proteus vulgaris. Kind of experiment: Antibacterial activity against Proteus vulgaris ATCC 8427 at 1 ug after 24 hrs by disk diffusion method. To be noted: ATCC 8427, 24 h, read-out: IZ.
Experiment [42] concerns Pseudomonas aeruginosa. In words: Antibacterial activity against Pseudomonas aeruginosa ATCC 27853 at 1 ug after 24 hrs by disk diffusion method. To be noted: ATCC 27853, 24 h, read-out: IZ.
In experiment [43] the test system is Mycolicibacterium smegmatis. Kind of experiment: Antibacterial activity against Mycobacterium smegmatis CCM 2067 at 1 ug after 24 hrs by disk diffusion method. To be noted: CCM 2067, 24 h, read-out: IZ.
For experiment [44], the system named is Listeria monocytogenes. In words: Antibacterial activity against Listeria monocytogenes ATCC 15313 at 1 ug after 24 hrs by disk diffusion method. Conditions: ATCC 15313, 24 h, read-out: IZ.
Experiment [45] relates to Micrococcus luteus. In words: Antibacterial activity against Micrococcus luteus La 2971 at 1 ug after 24 hrs by disk diffusion method. To be noted: read-out: IZ.
In experiment [46] the test system is Klebsiella pneumoniae. In words: Antibacterial activity against Klebsiella pneumoniae UC57 at 1 ug after 24 hrs by disk diffusion method. To be noted: read-out: IZ.
In experiment [47] the test system is Debaryomyces hansenii. Kind of experiment: Antifungal activity against Debaryomyces hansenii DSM 70238 at 1 ug after 72 hrs by disk diffusion method.
Experiment [48] concerns Hanseniaspora guilliermondii. Kind of experiment: Antifungal activity against Hanseniaspora guilliermondii DSM 3432 at 1 ug after 72 hrs by disk diffusion method.
The test system of experiment [49] is Kluyveromyces marxianus. In words: Antifungal activity against Kluyveromyces fragilis NRRL 2415 at 1 ug after 72 hrs by disk diffusion method.
Experiment [50] deals with Rhodotorula mucilaginosa. In words: Antifungal activity against Rhodotorula rubra DSM 70403 at 1 ug after 72 hrs by disk diffusion method.

`CC1(C)S[C@@H]2[C@H](NC(=O)Cc3ccccc3)C(=O)N2[C@H]1C(=O)O` [PENICILLIN G]: the “inhibition zone (IZ)” value in experiment [1] worked out at 14 mm; in [2], 10 mm; in [3], 18 mm; in experiment [4], 15 mm; in experiment [5], 18 mm; in experiment [6], 10 mm. Besides, the entries for the “inhibition zone (IZ)” value in experiment [7], in [8] and in experiment [9] were 36 mm, 8 mm and 13 mm, respectively.

On to `O=C1CSCC(=O)Nc2cccc(n2)NC(=O)CSCC(=O)Nc2cccc(n2)N1`, for which the “inhibition zone (IZ)” value in experiment [10] came to 15 mm; in experiment [12], 16 mm; in experiment [13], 15 mm; in [14] it was 17 mm; in [17], 18 mm; in [27] it was 10 mm. Moreover, the “inhibition zone (IZ)” value in experiment [28] is reported as 20 mm; in experiment [29], 14 mm; in experiment [31], 12 mm; in experiment [32] it was 20 mm; in experiment [34], 12 mm; in experiment [35], 12 mm. For the same molecule, the “inhibition zone (IZ)” value in experiment [36] was 11 mm; in experiment [37] it was 10 mm. Moreover, the MIC in [11] (DSM 3432, 48 h) was determined as 3.12 µg/mL (≈ 7 µM); in [15], 12.5 µg/mL (≈ 28 µM); in experiment [16], 6.25 µg/mL (≈ 14 µM); in experiment [18], 12.5 µg/mL (≈ 28 µM); in experiment [19], 12.5 µg/mL (≈ 28 µM); in [20], 25 µg/mL (≈ 56 µM). The MIC in [21] (DSM 70238, 48 h) is 3.12 µg/mL (≈ 7 µM); in experiment [22] (DSM 70403, 48 h), 6.25 µg/mL (≈ 14 µM); in experiment [23], 25 µg/mL (≈ 56 µM); in [24], 12.5 µg/mL (≈ 28 µM); in [25], 6.25 µg/mL (≈ 14 µM); in [26] it was 25 µg/mL (≈ 56 µM). In addition, the MIC amounted to 3.12 µg/mL (≈ 7 µM) in [30] (NRRL 2415, 48 h) and 6.25 µg/mL (≈ 14 µM) in experiment [33] (ATCC 10231, 48 h).

As for `CN[C@H](CC(C)C)C(=O)N[C@H]1C(=O)N[C@@H](CC(N)=O)C(=O)N[C@H]2C(=O)N[C@H]3C(=O)N[C@H](C(=O)N[C@H](C(=O)O)c4cc(O)cc(O)c4-c4cc3ccc4O)[C@H](O)c3ccc(c(Cl)c3)Oc3cc2cc(c3O[C@@H]2O[C@H](CO)[C@@H](O)[C@H](O)[C@H]2O[C@H]2C[C@](C)(N)[C@H](O)[C@H](C)O2)Oc2ccc(cc2Cl)[C@H]1O` [VANCOMYCIN], the zone of inhibition at 1 µg/disc turned out to be 13 mm in [38]; 22 mm in experiment [39]; 20 mm in experiment [40]; 34 mm in experiment [41]; 18 mm in [42]; 20 mm in [43]. Besides, the results for the zone of inhibition at 1 µg/disc in experiment [44], in experiment [45] and in experiment [46] were 26 mm, 10 mm and 22 mm, respectively.

In the case of NYSTATIN, the MIC worked out at 3.12 µg/mL in experiment [11]; 12.5 µg/mL in [21]; 3.12 µg/mL in [22]; 6.25 µg/mL in experiment [30]; 6.25 µg/mL in experiment [33]. For the same molecule, the inhibition zone (IZ) in experiment [47] amounted to 16 mm; in experiment [48], 21 mm; in [49] it was 18 mm; in experiment [50] it was 20 mm.
